Source: patent US20100151001A1, “ETHYNYLATED HETERODINUCLEOSIDE PHOSPHATE ANALOGS, METHOD FOR THE PRODUCTION THEREOF, AND USE THEREOF” (Eberhard Karls Universitat Tubingen, priority 2007, published 2010)

Columns and labels:
[1] = tested on: LOX IMVI melanoma xenograft
Protocol: A cell suspension of 5×10^6 tumor cells (LOX IMVI, cell line 01/A/1) was implanted subcutaneously in female athymic nude mice (Animal Production Area, Frederick, Md.). Intraperitoneal administration of the active substance began 3 days after tumor implantation. For this, the active substance was administered dissolved in 10% DMSO/common salt solution plus Tween® 80.
Administration was carried out in each case over a four-day period and comprised a total of 5 treatments. The tests were evaluated by determining the T/C values.
For a model based on solid tumors, a T/C value of 40 must be reached to be regarded as effective.

SF-295 = assay: cells; format: cell-based; settings: for CC50: Homo sapiens, SF-295, 48 h, read-out: LC50; for TGI: SF-295 (central nervous system), 100% growth inhibition, 48 h, SRB
Protocol: (§1) Tumor cell lines, whose 100% growth inhibition (TGI) by the compounds according to the invention is determined at various concentrations, serve as the test system. The toxicity (LC50) of the compound to these cells is also determined. On day 0, a series of microtiter plates is inoculated with the tumor cells and preincubated for 24 h. Then the compound according to the invention is added to the cells in five in each case 10-fold diluted concentration, starting from the highest soluble concentration. After incubation for 48 hours, the cells are fixed in situ, washed and dried. Then sulforhodamine B (SRB), a pink dye that binds to the fixed cells, is added and the cells are washed again. The dye that remains represents the adherent cell mass and is determined spectroscopically. The automatically acquired data are evaluated by computer and lead, for the compound according to the invention 5-fluoro-2′-deoxyuridylyl-(5′-5′)-3′-C-ethynylcytidine and 5-fluoro-2′-deoxyuridylyl-(3′-5′)-3′-C-ethynylcytidine, to the following results, the data for the 3′-5′-coupled dimer being shown in bold above the data for the 5′-5′-coupled isomer.

EKVX = assay: cells; format: cell-based; settings: 48 h; for TGI: EKVX (lung), 100% growth inhibition, SRB; for CC50: Homo sapiens, EKVX, read-out: LC50
Protocol: as §1

HCC-2998 = assay: cells; format: cell-based; settings: for TGI: HCC-2998 (intestine), 100% growth inhibition, 48 h, SRB; for CC50: Homo sapiens, HCC 2998, 48 h, read-out: LC50
Protocol: as §1

HCT-15 = assay: cells; format: cell-based; settings: for TGI: HCT-15 (intestine), 100% growth inhibition, 48 h, SRB; for CC50: Homo sapiens, HCT-15, 48 h, read-out: LC50
Protocol: as §1

LOX IMVI = assay: cells; format: cell-based; settings: 48 h; for CC50: Homo sapiens, LOX IMVI, read-out: LC50; for TGI: LOX IMVI (melanoma), 100% growth inhibition, SRB
Protocol: as §1

A549/ATCC = assay: cells; format: cell-based; settings: for TGI: A549/ATCC (lung), 100% growth inhibition, 48 h incubation, SRB; for CC50: Homo sapiens, A549, 48 h, read-out: LC50
Protocol: as §1

IGROV1 = assay: cells; format: cell-based; settings: for CC50: Homo sapiens, IGROV-1, 48 h, read-out: LC50; for TGI: IGROV1 (ovaries), 100% growth inhibition, 48 h, SRB
Protocol: as §1

BT-549 = assay: cells; format: cell-based; settings: for TGI: BT-549 (breast), 100% growth inhibition, 48 h, SRB; for CC50: Homo sapiens, BT-549, 48 h, read-out: LC50
Protocol: as §1

DU-145 = assay: cells; format: cell-based; settings: for TGI: DU-145 (prostate), 100% growth inhibition, 48 h, SRB; for CC50: Homo sapiens, DU-145, 48 h, read-out: LC50
Protocol: as §1

SF-539 = assay: cells; format: cell-based; settings: for CC50: Homo sapiens, SF-539, 48 h, read-out: LC50; for TGI: SF-539 (central nervous system), 100% growth inhibition, 48 h, SRB
Protocol: as §1

NCI-H522 = assay: cells; format: cell-based; settings: for CC50: Homo sapiens, NCI-H522, 48 h, read-out: LC50; for TGI: NCI-H522 (lung), 100% growth inhibition, 48 h, SRB
Protocol: as §1

SNB-75 = assay: cells; format: cell-based; settings: for CC50: Homo sapiens, SNB-75, 48 h, read-out: LC50; for TGI: SNB-75 (central nervous system), 100% growth inhibition, 48 h, SRB
Protocol: as §1

MCF7 = assay: cells; format: cell-based; settings: for CC50: Homo sapiens, MCF7, 48 h, read-out: LC50; for TGI: MCF7 (breast), 100% growth inhibition, 48 h, SRB
Protocol: as §1

HOP-92 = assay: cells; format: cell-based; settings: for TGI: HOP-92 (lung), 100% growth inhibition, 48 h, SRB; for CC50: Homo sapiens, HOP-92, 48 h, read-out: LC50
Protocol: as §1

SK-MEL-2 = assay: cells; format: cell-based; settings: for LC50: Homo sapiens, SK-MEL-2, 48 h, read-out: LC50; for TGI: SK-MEL-2 (melanoma), 100% growth inhibition, 48 h, SRB
Protocol: as §1

ACHN = assay: cells; format: cell-based; settings: 48 h; for TGI: ACHN (kidneys), 100% growth inhibition, SRB; for CC50: Homo sapiens, ACHN, read-out: LC50
Protocol: as §1

T-47D = assay: cells; format: cell-based; settings: 48 h; for CC50: Homo sapiens, T47D, read-out: LC50; for TGI: T-47D (breast), 100% growth inhibition, SRB
Protocol: as §1

CAK-1 = assay: cells; format: cell-based; settings: 48 h; for CC50: read-out: LC50; for TGI: CAK-1 (kidneys), 100% growth inhibition, SRB
Protocol: as §1

Tumor cell lines = assay: Cytostatic action in vitro, comparison over the tumor cell lines; format: cell-based
Protocol: as §1

C#CC1(O)C(COP(=O)(O)OC2C[C@H](n3cc(F)c(=O)[nH]c3=O)O[C@@H]2CO)OC(n2ccc(N)nc2=O)C1O (stereo in doubt) [Example 1, 5-fluoro-2′-deoxyuridylyl-(3′-5′)-3′-C-ethynylcytidine]
optimum T/C value ([1]; 11.2 mg/kg/injection intraperitoneal, 5 treatments, day 13, nude mice): 16
maximum T/C value ([1]; 16.75 mg/kg/injection intraperitoneal, 5 treatments, day 11 after tumor implantation, nude mice): 7
in vivo activity in the tumor model ([1]; LOX IMVI xenograft, overall conclusion): significant in vivo activity
CC50 (SF-295): > 100 µM
TGI (SF-295): 1.07 µM
TGI (EKVX): 6.37 µM
CC50 (EKVX): > 100 µM
TGI (HCC-2998): 0.109 µM
CC50 (HCC-2998): 1.73 µM
TGI (HCT-15): 15.1 µM
CC50 (HCT-15): > 100 µM
CC50 (LOX IMVI): 91.5 µM
TGI (LOX IMVI): 0.348 µM
TGI (A549/ATCC): 29.6 µM
CC50 (A549/ATCC): > 100 µM
CC50 (IGROV1): > 100 µM
TGI (IGROV1): 12.9 µM
TGI (BT-549): 0.346 µM
CC50 (BT-549): 6.39 µM
TGI (DU-145): 0.44 µM
CC50 (DU-145): > 100 µM
CC50 (SF-539): 32.2 µM
TGI (SF-539): 0.167 µM
CC50 (NCI-H522): > 100 µM
TGI (NCI-H522): 1.15 µM
CC50 (SNB-75): 4.72 µM
TGI (SNB-75): 0.882 µM
CC50 (MCF7): > 100 µM
TGI (MCF7): 0.137 µM
TGI (HOP-92): 2.18 µM
CC50 (HOP-92): > 100 µM
LC50 (SK-MEL-2): 69.5 µM
TGI (SK-MEL-2): 0.424 µM
TGI (ACHN): 1.52 µM
CC50 (ACHN): > 100 µM
CC50 (T-47D): > 100 µM
TGI (T-47D): 26.7 µM
CC50 (CAK-1): > 100 µM
TGI (CAK-1): 0.0829 µM
effectiveness compared with the 5′-5′-coupled duplex active substance (example 2) (Tumor cell lines; in vitro, tumor cell lines of the table): much more effective
TGI values lower compared with the 5′-5′-coupled isomer (Tumor cell lines; often, over the tumor cell lines): up to 1000 times

C#CC1(O)C(COP(=O)(O)OC[C@H]2O[C@@H](n3cc(F)c(=O)[nH]c3=O)CC2O)OC(n2ccc(N)nc2=O)C1O (stereo in doubt) [Example 2, 5-fluoro-2′-deoxyuridylyl-(5′-5′)-3′-C-ethynylcytidine]
CC50 (SF-295): > 100 µM
TGI (SF-295): 20.6 µM
TGI (EKVX): >100 µM
CC50 (EKVX): > 100 µM
TGI (HCC-2998): 2.95 µM
CC50 (HCC-2998): 57.2 µM
TGI (HCT-15): >100 µM
CC50 (HCT-15): > 100 µM
CC50 (LOX IMVI): ≥ 100 µM
TGI (LOX IMVI): 100 µM
TGI (A549/ATCC): >100 µM
CC50 (A549/ATCC): > 100 µM
CC50 (IGROV1): > 100 µM
TGI (IGROV1): >100 µM
TGI (BT-549): 11.6 µM
CC50 (BT-549): > 100 µM
TGI (DU-145): >100 µM
CC50 (DU-145): > 100 µM
CC50 (SF-539): > 100 µM
TGI (SF-539): 2.01 µM
CC50 (NCI-H522): > 100 µM
TGI (NCI-H522): >100 µM
CC50 (SNB-75): > 100 µM
TGI (SNB-75): >100 µM
CC50 (MCF7): > 100 µM
TGI (MCF7): >100 µM
TGI (HOP-92): 21.5 µM
CC50 (HOP-92): > 100 µM
LC50 (SK-MEL-2): 76.4 µM
TGI (SK-MEL-2): 5.78 µM
TGI (ACHN): >100 µM
CC50 (ACHN): > 100 µM
CC50 (T-47D): > 100 µM
TGI (T-47D): >100 µM
CC50 (CAK-1): > 100 µM
TGI (CAK-1): >100 µM
